This note sets out measurements from EP0207497A2, “Quinolonecarboxylic acid derivative and process for its preparation” (KYORIN PHARMACEUTICAL CO., LTD., priority 1985, dated 1987).

Common to all, as to assay type: cell-based
In assay [1] the test system is Enterobacter cloacae IID 977. Put plainly: Antibacterial spectrum, MIC determination (method of Japan Society of Chemotherapy). The conditions noted are these: IID977; Enterobacter cloacae IID 977, Gram -, 10^6 cells/ml.
In a further assay the test system is P. aeruginosa IID 1210. Described as above. The following applies: Pseudomonas aeruginosa, IID1210; P. aeruginosa IID 1210, Gram -, 10^6 cells/ml.
The subject of another assay is C. ramosum. The assay is described as above. The following applies: Thomasclavelia ramosa; C. ramosum, Gram +, 10^6 cells/ml; read-out: MIC.
The next assay deals with C. perfringens KYA 13123. Put plainly: microbe, parasite or virus in culture. The conditions noted are these: Clostridium perfringens, KYA13123.
For another assay, the system named is K. pneumoniae 1-220S. Put plainly: Antibacterial spectrum, MIC determination (method of Japan Society of Chemotherapy). The conditions noted are these: Klebsiella pneumoniae, 1220S; K. pneumoniae 1-220S, Gram -, 10^6 cells/ml; read-out: MIC.
The test system of another assay is Pst. micros UPI 5464-1. The assay is described as above. The following applies: Parvimonas micra, UPI54641; Pst. micros UPI 5464-1, Gram +, 10^6 cells/ml.
The test system of another assay is P. aeruginosa IFO 12689. The assay is described as above. The following applies: Pseudomonas aeruginosa, IFO12689; P. aeruginosa IFO 12689, Gram -, 10^6 cells/ml.
The next assay deals with F. varium KYA 8501. Described as above. The following applies: Fusobacterium varium, KYA8501; F. varium KYA 8501, Gram -, 10^6 cells/ml.
Assay [2] concerns Pseudomonas aeruginosa V-1. The description is as above. The conditions noted are these: V1; Pseudomonas aeruginosa V-1, Gram -, 10^6 cells/ml.
Another assay concerns P. maltophilia GIFU 2491. The assay is described as above. The conditions noted are these: Stenotrophomonas maltophilia, GIFU2491; P. maltophilia GIFU 2491, Gram -, 10^6 cells/ml; read-out: MIC.
Assay [3] has as its system Veillonella parvula KYA 10790. The description is as above. The conditions noted are these: KYA10790; Veillonella parvula KYA 10790, Gram -, 10^6 cells/ml.
Assay [4] concerns Proteus vulgaris IFO 3167. The description is as above. The following applies: IFO3167; Proteus vulgaris IFO 3167, Gram -, 10^6 cells/ml; read-out: MIC.
The test system of assay [5] is Bacillus subtilis PCI 219. The assay is described as above. The following applies: PCI219; Bacillus subtilis PCI 219, Gram +, 10^6 cells/ml; read-out: MIC.
Assay [6] concerns B. thetaiotaomicron (0661). The assay is described as above. The conditions noted are these: Bacteroides thetaiotaomicron; B. thetaiotaomicron (0661), Gram -, 10^6 cells/ml; read-out: MIC.
For assay [7], the system named is Alcaligenes faecalis 0114002. The description is as above. The conditions noted are these: Alcaligenes faecalis 0114002, Gram -, 10^6 cells/ml.
A further assay concerns S. epidermidis IID 866. The assay is described as above. The conditions noted are these: Staphylococcus epidermidis, IID866; S. epidermidis IID 866, Gram +, 10^6 cells/ml; read-out: MIC.
The subject of the next assay is P. mirabilis IID 994. Described as above. The following applies: Proteus mirabilis, IID994; P. mirabilis IID 994, Gram -, 10^6 cells/ml; read-out: MIC.
In assay [8] the test system is Propionibacterium acens 11828. Described as above. The conditions noted are these: Propionibacterium acens 11828, Gram +, 10^6 cells/ml; read-out: MIC.

Molecules are shown by their SMILES. ≈ marks a conversion by molar mass, not a printed value.

`NC1CCN(c2c(F)cc3c(=O)c(C(=O)O)cn(C4CC4)c3c2Br)C1` (stereo not drawn) [Exp. 1, 7-(3-Amino-1-pyrrolidinyl)-8-bromo-1-cyclopropyl-6-fluoro-1,4-dihydro-4-oxo-3-quinolinecarboxylic acid]: the MIC in assay [1] was 0.025 mg/L (≈ 0.0609 µM); against P. aeruginosa IID 1210, 0.78 mg/L (≈ 1.9 µM); in the assay on C. ramosum, 1.56 mg/L (≈ 3.8 µM); with C. perfringens KYA 13123 it was 0.2 mg/L (≈ 0.488 µM); in the assay with K. pneumoniae 1-220S, 0.025 mg/L (≈ 0.0609 µM); in the assay on Pst. micros UPI 5464-1, 0.1 mg/L (≈ 0.244 µM). For the same compound, the MIC in the assay with P. aeruginosa IFO 12689 amounted to 0.39 mg/L (≈ 0.951 µM); in the assay on F. varium KYA 8501, 0.78 mg/L (≈ 1.9 µM); in assay [2], 0.2 mg/L (≈ 0.488 µM); in the assay on P. maltophilia GIFU 2491 it was 0.05 mg/L (≈ 0.122 µM); in [3], 0.1 mg/L (≈ 0.244 µM); in assay [4] it was 0.0125 mg/L (≈ 0.0305 µM). Besides, the MIC in assay [5] came to 0.025 mg/L (≈ 0.0609 µM); in assay [6], 0.2 mg/L (≈ 0.488 µM); in assay [7], 0.1 mg/L (≈ 0.244 µM); in the assay with S. epidermidis IID 866 it was 0.1 mg/L (≈ 0.244 µM); with P. mirabilis IID 994 it was 0.0125 mg/L (≈ 0.0305 µM); in assay [8] it was 1.56 mg/L (≈ 3.8 µM).
